Tests used:
Candida krusei 28415 = assay: MIC susceptibility testing (fluconazole-resistant strain); assay type: cell-based; settings: CLSI M27-A3
Description: (§1) Occidiofungin was purified from a liquid culture of Burkholderia contaminans MS14 as previously described ([21]). MIC susceptibility testing was performed according to the CLSI M27-A3 and M38-A2 standards for the susceptibility testing of yeasts and filamentous fungi, respectively. S. cerevisiae deletion mutants were obtained from the commercially available BY4741 deletion library (Thermo Scientific).

S. cerevisiae Δabp1 = assay: MIC against deletion mutant; assay type: cell-based; settings: ARP2/3 activator
Description: as §1

S. cerevisiae Δarc18 = assay: MIC against deletion mutant; assay type: cell-based; settings: ARP2/3 subunit
Description: as §1

S. cerevisiae Δbem2 = assay: MIC against deletion mutant; assay type: cell-based; settings: Rho-GAP for the CWI pathway
Description: as §1

S. cerevisiae Δbni1 = assay: MIC against deletion mutant; assay type: cell-based; settings: Actin nucleation, Formin
Description: as §1

S. cerevisiae Δbnr1 = assay: MIC against deletion mutant; assay type: cell-based; settings: Actin nucleation, Formin
Description: as §1

S. cerevisiae Δcap2 = assay: MIC against deletion mutant; assay type: cell-based; settings: Barbed-end actin capping protein
Description: as §1

S. cerevisiae Δmyo4 = assay: MIC against deletion mutant; assay type: cell-based; settings: Actin based motor activity, Type V motor
Description: as §1

S. cerevisiae Δmyo5 = assay: MIC against deletion mutant; assay type: cell-based; settings: Actin based motor activity, Type I motor
Description: as §1

S. cerevisiae Δrdi1 = assay: MIC against deletion mutant; assay type: cell-based; settings: Rho GDP-inhibitor
Description: as §1

S. cerevisiae Δrgl1 = assay: MIC against deletion mutant; assay type: cell-based; settings: Tus1p cofactor
Description: as §1

S. cerevisiae Δrom1 = assay: MIC against deletion mutant; assay type: cell-based; settings: Rho1-GEF
Description: as §1

S. cerevisiae Δsac7 = assay: MIC against deletion mutant; assay type: cell-based; settings: Rho1-GAP
Description: as §1

S. cerevisiae Δscp1 = assay: MIC against deletion mutant; assay type: cell-based; settings: Actin cross linker
Description: as §1

S. cerevisiae Δtpm1 = assay: MIC against deletion mutant; assay type: cell-based
Description: as §1

S. cerevisiae Δtpm2 = assay: MIC against deletion mutant; assay type: cell-based; settings: Actin filament binding, Tropomyosin
Description: as §1

S. cerevisiae Δtus1 = assay: MIC against deletion mutant; assay type: cell-based; settings: Rho1p GEF
Description: as §1

cancer cell lines = settings: several cancer cell lines vs human fibroblast control; cited from earlier work
Description: Natural products with in vitro antifungal properties that target the actin cytoskeleton were previously reported ([51]). […] Occidiofungin, on the other hand, is well tolerated at 5 mg/kg or 20 mg/kg when administered intravenously or subcutaneously, respectively ([22], [25]). This dose is much higher than the MIC of occidiofungin against several fungal pathogens. ...

occidiofungin
approximately 10 -fold: sensitivity of several cancer cell lines vs human fibroblast cell line (cancer cell lines)
4 µg/mL: MIC, 50% inhibition (Candida krusei 28415; 24 hours) | MIC, 50% inhibition (Candida krusei 28415; 48 hours)
1.0 µg/mL: MIC (S. cerevisiae Δtpm1; Actin filament binding, Tropomyosin)
8 µg/mL: MIC, 100% inhibition (Candida krusei 28415; 24 hours) | MIC, 100% inhibition (Candida krusei 28415; 48 hours)
0.25 µg/mL: MIC (S. cerevisiae Δabp1) | MIC (S. cerevisiae Δarc18) | MIC (S. cerevisiae Δbem2) | MIC (S. cerevisiae Δbni1) | MIC (S. cerevisiae Δbnr1) | MIC (S. cerevisiae Δcap2) | MIC (S. cerevisiae Δmyo4) | MIC (S. cerevisiae Δmyo5) | MIC (S. cerevisiae Δrdi1) | MIC (S. cerevisiae Δrgl1) | MIC (S. cerevisiae Δrom1) | MIC (S. cerevisiae Δsac7) | MIC (S. cerevisiae Δscp1) | MIC (S. cerevisiae Δtpm2) | MIC (S. cerevisiae Δtus1)
4 -fold: resistance to occidiofungin of Δtpm1 mutant (S. cerevisiae Δtpm1; vs parent, MIC)

Source: PMC6325233, “A Novel Actin Binding Drug with In Vivo Efficacy” (Antimicrobial Agents and Chemotherapy, 2018)
